Assay results as given in US11298354B2, “Methods of use and pharmaceutical combinations of HDAC inhibitors with BET inhibitors” (DANA-FARBER CANCER INSTITUTE, INC., priority 2016, dated 2022).

Experiments:
[1] = test system: peripheral blood mononuclear cells (PBMCs) from healthy donors; assay: Healthy donor PBMCs cultured with HDAC inhibitors, FACS; type: cell-based, human; conditions: for percentage of CD4+FOXP3+ Tregs within PBMCs: FIG. 1C
Text: HDAC inhibition results in tumor growth arrest in immunocompetent animal models. The effects of class I and class II HDAC inhibition on leukocytes were investigated using peripheral blood mononuclear cells (PBMCs) obtained from healthy donors.

[2] = test system: CD3+CD4+CD25hi Treg cells from spleen of wild-type mice; assay: Mouse splenic T cells and Tregs cultured with JQ1; type: cell-based
Text: A combination treatment with an HDAC6 selective inhibitor and a complementary immunomodulatory agent can achieve greater levels of immune-based control of tumor growth in these NSCLC models. JQ1 was previously shown to have an anti-tumor effect in KP mice in part due to downregulation of MYC and induction of apoptosis in tumor cells. […] T cells were isolated from the spleen of wild-type mice and sorted into CD3+CD25− (T cells) or CD3+CD4+CD25hi (Treg) subsets and subsequently cultured in the presence or absence of JQ1 (1 μM). Cultures were supplemented with 100 IU/mL of recombinant IL-2. Cells were washed after two days of culture and their phenotype was evaluated by FACS. For the CSFE dilution shown in FIG. 7C, 2×10^5 CFSE-labelled purified T cells obtained from the spleen of naïve mice were co-cultured with 1.0×10^5 mitomycin C treated, T-depleted spleen cells which served as APCs. 0.5 μg of soluble anti-CD3 was then added to each well along with graded numbers of Tregs (indicated by Treg:T cell ratios).

[3] = test system: lung adenocarcinomas of KP mice; assay: Immune profiling of KP tumor nodules after 4-6 weeks of treatment; type: in vivo, mouse
Experimental: For immune profiling, cohorts of mice were sacrificed after 4-6 weeks of treatment and tumor cell suspensions were subjected to FACS analysis. […] In addition, immune cells isolated from tumors of mice treated with indicated drugs were stimulated ex-vivo for 6 hours in the presence of golgi plug. […] Equivalent numbers of each of these populations were co-cultured for two days in the presence of tumor cell lysate.
(§1) After incubation, cells were treated with red blood cell lysis buffer and were filtered through a 70 μm cell strainer. After centrifugation, cell pellet was re-suspended in 1×PBS/2% FBS. Cells were counted, and ˜0.5-1×10^6 cells were stained for surface markers in PBS+2% FBS for 15 minutes at 4° C. Intracellular staining was performed for Foxp3, Ki67, CTLA-4, and Bcl-2, using the Foxp3 staining buffer according to the manufacturer's instructions while the cytofix/cytoperm kit (BD Bioscience) was used for intracellular cytokine staining. Briefly, cells were stained for surface markers including CD4, CD8, CD3, followed by intracellular staining with PE-conjμgated anti-IFN-γ, BV421-conj μgated anti-TNF-α, APC-conjugated IL-2, FITC-conjugated Perforin and CD107a (where indicated), or isotype-matched mAbs after permeabilization and fixation. In all stained samples, dead cells were excluded using Live/Dead Fixable dead cell staining kit (Invitrogen). Cells were acquired on the LSR Fortessa (BD Biosciences) and were analyzed with the flowjo software (Treestar).
(§2) For intracellular cytokine detection assays, immune cells from tumors of treated or control mice were obtained after ficoll gradient separation as previously described. 1×10^6 cells were cultured with PMA (50 ng) and Ionomycin (500 ng) for 6 hours at 37° C., and GolgiPlμg (BD Pharmingen) was added for the last 5 hours of culture. For equivalent assays utilizing human PBMCs, 0.5×10^6 cells were similarly stimulated prior to analysis.

[4] = test system: lung adenocarcinomas of KP mice; assay: Long-term efficacy study in KP mice; conditions: I.P. once daily, MRI, FIG. 6 and 8A
Experimental: Tumor growth was monitored weekly by MRI.
For lung tumor induction, mice received 1×10^6 cfu cre-encoding adenovirus intranasally at 5-6 weeks of age. Tumor formation (typically 6-8 weeks post inoculation) and volume was confirmed by MRI and was quantified using the 3D-slicer software. […] All mice were maintained under specific pathogen-free conditions.
JQ1 was formulated in 10% DMSO and 90% of 10% 2-hydroxylpropyl β-cyclodextrin (Sigma), and was administrated to mice at 25 mg/kg I.P. daily. Vehicle control was prepared by diluting DMSO into the related drug vehicle. […] Depletion of relevant cell types was confirmed by flow cytometry one day after the second dose using peripheral blood obtained from the tail vein.

[5] = test system: lung adenocarcinomas of KP and TL mice; assay: 7-day treatment of KP and TL lung adenocarcinoma mice, tumor immune profiling; type: in vivo, mouse
Text: Tumor-associated immune cells are important in shaping the course of tumor progression and anti-tumor immunity. The effects of an HDAC6 selective inhibitor on phenotypic and functional changes, especially in the context of tumor antigens, were investigated. Specifically, the effects of an HDAC6 selective inhibitor on immune cells infiltrating lung adenocarcinomas that spontaneously develop in fully immunocompetent genetically engineered mice harboring activating Kras^G12D mutation and concurrent p53 loss (designated as KP), or those with T790M/L858R EGFR mutations (designated TL) were studied. […] Single cell suspensions of lung tumor nodules were generated and subjected to FACS analysis to assess the proportions, phenotype and function of CD45+ immune cell subsets in the tumors isolated from both KP and TL mice.
Mice with existing adenocarcinomas were treated once daily with Compound A for seven days prior to evaluation of dissociated tumors by comprehensive multi-parameter flow cytometry. […] Such increases in the CD8:Treg ratios are often associated with enhanced anti-tumor response. […]
as §1, §2
Tumor-associated macrophages (TAMs; CD45+CD11c+CD11b^lo) and CD45+CD3+CD25^lo/− T cells were sorted into 96-well plates containing 50 μl of 1×PBS with Recombinant Ribonuclease Inhibitor (Life Technologies) isolated from tumor tissues by FACS sorting. Briefly, tumor cell suspensions were incubated with live/dead fixable dye after FcγR blocking and subsequently stained with antibodies against CD45, CD3, CD8, CD11b, and CD11c. Smart-Seq2 libraries were prepared by the Broad Technology Labs and sequenced by the Broad Genomics Platform.

[6] = test system: PBMCs obtained from non-small cell lung cancer (NSCLC) patients; assay: NSCLC patient PBMCs cultured with Compound A or entinostat, FACS; conditions: for expression of CD86 on CD14+ monocytes / expression of MHC class II molecules on CD14+ monocytes: 24-hour culture, FIG. 4A; for expression of CD69 activation marker on conventional CD8+ and CD4+ T cells: patient PBMC cultures, FIG. 3A, 3B
Text: Specifically, the phenotype of CD14+CD11b+ monocytes in the peripheral blood of healthy subjects and NSCLC patients, or that of CD14-CD68+CD11b+ macrophages within disaggregated NSCLC tumors were investigated. […] Peripheral blood mononuclear cells (PBMCs) were isolated by Ficoll gradient from fresh or frozen blood samples obtained from healthy donors and consented patients under IRB-approved institutional protocols. […] Cells were then washed and were subjected to phenotypic analysis by FACS. In some experiments, these cultures were performed with purified CD14+ monocytes or CD3+ T cells after purifications from whole PBMCs.

[7] = test system: single cell suspensions from dissociated freshly resected NSCLC tumors; assay: Dissociated NSCLC patient tumor cell cultures, FACS; type: cell-based, human; conditions: 2-D tumor cell cultures, FIG. 4B
Text: DMSO was used as a control.

[8] = current clinical trials of hematologic cancers; cited from earlier work
[9] = test system: CD14+ monocytes from patient PBMCs / allogeneic T cells; assay: Mixed lymphocyte reaction with drug-exposed CD14+ monocytes; conditions: monocytes cultured 24 hours with drug, 6 days co-culture, FIG. 4D
Text: For T cell proliferation assays, T cells were isolated from PBMCs by positive selection using T cell enrichment kit (Miltenyi Biotec) following the manufacturer's instructions. Cells were typically ˜90% pure. […] Cells were washed three times with RPMI+10% FBS, were counted, and were used as responder cells.

[10] = JQ1 1 μM, two days of culture, FIG. 7B
[11] = PBMCs from healthy donors, FIG. 4C
[12] = KP and TL mice, 7 days, FIG. 5K-5M
[13] = KP and TL mice, once daily for seven days, FIG. 5A-5B

O=C(NO)c1cnc(NC2(c3cccc(F)c3)CCCCC2)nc1 [Compound C, 2-((1-(3-fluorophenyl)cyclohexyl)amino)-N-hydroxypyrimidine-5-carboxamide]
percentage of CD4+FOXP3+ Tregs within PBMCs ([1]; healthy donor PBMCs, 24 hours): did not significantly impact

Cc1sc2c(c1C)C(c1ccc(Cl)cc1)=NC(CC(=O)OC(C)(C)C)c1nnc(C)n1-2 (stereo not drawn) [JQ1]
suppressive function of Tregs vs unexposed counterparts ([2]; CFSE dilution, FIG. 7C): less suppressive
expression levels of Foxp3 on Tregs [2, 10]: diminished expression levels
expression levels of PD-1 on Tregs [2, 10]: diminished expression levels
Treg fractions/proportions in tumors ([3]; 4-6 weeks, FIG. 9B): more substantial reduction
tumor growth [4]: moderate

O=C(CCCCCCNC(=O)c1cnc(N(c2ccccc2)c2ccccc2Cl)nc1)NO [Compound B, 2-((2-chlorophenyl)(phenyl)amino)-N-(7-(hydroxyamino)-7-oxoheptyl)pyrimidine-5-carboxamide]
percentage of CD4+FOXP3+ Tregs within PBMCs ([1]; healthy donor PBMCs, 24 hours): reduced most significantly
activation of CD8 T cells (CD69 activation marker) ([5]; KP mice, 7 days, FIG. 5I): increased activation
expression of MHCII on tumor associated macrophages ([5]; KP mice, 7 days, FIG. 5I): increased expression

Nc1ccccc1NC(=O)c1ccc(CNC(=O)OCc2cccnc2)cc1 [Entinostat, entinostat, reference compound]
percentage of CD4+FOXP3+ Tregs within PBMCs ([1]; healthy donor PBMCs, 24 hours): effect was still present
expression of CD86 on CD14+ monocytes [6]: neither addition of DMSO nor entinostat up-regulated
expression of MHC class II molecules on CD14+ monocytes [6]: neither addition of DMSO nor entinostat up-regulated
expression of CD69 activation marker on conventional CD8+ and CD4+ T cells [6]: not

CN1CCc2c(c3ccccc3n2Cc2ccc(C(=O)NO)cc2)C1 [Tubastatin, Tubastatin A, reference compound]
percentage of CD4+FOXP3+ Tregs within PBMCs ([1]; healthy donor PBMCs, 24 hours): did not significantly impact

O=C(NO)c1cnc(NC2(c3ccccc3)CC2)nc1 [Compound D, N-hydroxy-2-((1-phenylcyclopropyl)amino)pyrimidine-5-carboxamide]
percentage of CD4+FOXP3+ Tregs within PBMCs ([1]; healthy donor PBMCs, 24 hours): effect was still present

O=C(CCCCCCNC(=O)c1cnc(N(c2ccccc2)c2ccccc2)nc1)NO [Compound A, 2-(diphenylamino)-N-(7-(hydroxyamino)-7-oxoheptyl)pyrimidine-5-carboxamide]
expression of CD86 on monocytes [1, 11]: increased expression
expression of MHC class II on monocytes [1, 11]: increased expression
expression of CD69 activation marker on conventional CD8+ and CD4+ T cells ([1]; healthy donor PBMC cultures, 24 hours, FIG. 3C, 3D): substantially up-regulated
percentage of CD4+FOXP3+ Tregs within PBMCs ([1]; healthy donor PBMCs, 24 hours): reduced most significantly
phospho-STAT3 expression on T cells ([1]; healthy donor PBMCs, FIG. 3E): increase
expression of CD86 on CD14-CD68+CD11b+ macrophages [7]: increased expression
expression of MHC class II on CD14-CD68+CD11b+ macrophages [7]: increased expression
expression levels of CD86 on CD11c+CD11b lo tumor-associated macrophages [5, 12]: significantly elevated expression levels
expression levels of MHC class II on CD11c+CD11b lo tumor-associated macrophages [5, 12]: significantly elevated expression levels
CD4+Foxp3+ Treg cells among lymphoid cells [5, 13]: significant decreases
frequency of tumor-infiltrating CD8+ T cells [5, 13]: modest increases
genes associated with T cell activation and effector function (Cd69, Sell, Cd44, Prf1) in tumor-infiltrating T cells ([5]; KP mice, single cell RNA-Seq, vs vehicle, FIG. 5N): up-regulated
inhibitory receptor molecule expression on tumor-infiltrating T cells ([5]; PD-1, CTLA-4, TIM3, seven days, FIG. 5D-5G): no substantial phenotypic changes
secretion of IFN-γ and TNF-α by tumor-infiltrating CD8+ T cells ([5]; ex-vivo stimulation, vs vehicle, FIG. 5H): enhanced capacity to secrete
CD69 activation marker on tumor-infiltrating CD8+ T cells ([5]; seven days treatment, vs vehicle, FIG. 5H): increased expression levels
expression of genes associated with MHC class II (Cd74, H2-Aa) in TAMs ([5]; single cell RNA-Sequencing, vs control mice, FIG. 5N): higher expression
MHC class II molecules on TAMs ([3]; FIG. 9G): markedly promoted the up-regulation
CD86 on TAMs ([3]; FIG. 9H): markedly promoted the up-regulation
safety profile [8]: favorable safety profile
tumor growth [4]: marginal delay
induction of allogeneic T cell proliferative responses by exposed CD14+ monocytes [9]: superior
expression of CD86 on CD14+ monocytes [6]: up-regulated
expression of MHC class II molecules on CD14+ monocytes [6]: up-regulated
expression of CD69 activation marker on conventional CD8+ and CD4+ T cells [6]: substantially up-regulated
